Experimental data taken from ChEMBL document CHEMBL1149560, “Discovery of a potent CDK2 inhibitor with a novel binding mode, using virtual screening and initial, structure-guided lead scoping” (Bioorg Med Chem Lett, 2007).

What was measured:
HCT-116 = assay: Antiproliferative activity against HCT116 cells by SRB assay after 72 hrs; assay type: functional; settings: Homo sapiens, HCT-116, 72 h
[1] = target: Cyclin-dependent kinase 2 (Homo sapiens, UniProt P24941); assay: Inhibition of CDK2
[2] = Inhibition of PKA; design: species or system Homo sapiens
[3] = target: RAC-alpha serine/threonine-protein kinase (Homo sapiens) (UniProt P31749); assay: Inhibition of AKT at 10 uM
RAC-alpha serine/threonine-protein kinase (Homo sapiens), sequence (P31749 whole entry): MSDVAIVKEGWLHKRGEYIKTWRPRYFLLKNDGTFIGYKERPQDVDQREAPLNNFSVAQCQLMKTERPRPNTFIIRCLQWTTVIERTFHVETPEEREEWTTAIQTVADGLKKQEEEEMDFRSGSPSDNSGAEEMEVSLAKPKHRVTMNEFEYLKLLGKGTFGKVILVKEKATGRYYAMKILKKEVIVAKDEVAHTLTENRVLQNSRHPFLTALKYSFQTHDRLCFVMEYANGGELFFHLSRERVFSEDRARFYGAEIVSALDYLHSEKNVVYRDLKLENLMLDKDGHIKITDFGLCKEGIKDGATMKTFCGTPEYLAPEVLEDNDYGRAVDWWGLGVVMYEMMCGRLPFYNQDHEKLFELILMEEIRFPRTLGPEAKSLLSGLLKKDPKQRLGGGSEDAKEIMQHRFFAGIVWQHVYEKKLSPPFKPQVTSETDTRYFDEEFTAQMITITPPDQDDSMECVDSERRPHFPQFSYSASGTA

[4] = target: Glycogen synthase kinase-3 beta (Homo sapiens, UniProt P49841); assay: Inhibition of GSK3-beta
Glycogen synthase kinase-3 beta, sequence (P49841 whole entry): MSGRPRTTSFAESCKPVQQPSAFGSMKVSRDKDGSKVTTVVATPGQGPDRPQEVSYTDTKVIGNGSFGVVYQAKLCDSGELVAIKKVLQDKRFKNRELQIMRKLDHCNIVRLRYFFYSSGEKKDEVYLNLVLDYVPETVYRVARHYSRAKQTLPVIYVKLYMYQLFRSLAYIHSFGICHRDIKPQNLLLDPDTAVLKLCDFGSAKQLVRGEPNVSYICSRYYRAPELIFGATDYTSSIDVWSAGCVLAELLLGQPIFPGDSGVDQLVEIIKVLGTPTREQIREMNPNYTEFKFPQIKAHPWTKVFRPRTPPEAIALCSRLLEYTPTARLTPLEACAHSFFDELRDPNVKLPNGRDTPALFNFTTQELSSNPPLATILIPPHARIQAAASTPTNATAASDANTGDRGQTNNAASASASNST

[5] = target: T1, Serine/threonine-protein kinase Chk1 (Homo sapiens) (UniProt O14757); assay: Inhibition of Chk1 at 50 uM
T1 sequence (whole entry): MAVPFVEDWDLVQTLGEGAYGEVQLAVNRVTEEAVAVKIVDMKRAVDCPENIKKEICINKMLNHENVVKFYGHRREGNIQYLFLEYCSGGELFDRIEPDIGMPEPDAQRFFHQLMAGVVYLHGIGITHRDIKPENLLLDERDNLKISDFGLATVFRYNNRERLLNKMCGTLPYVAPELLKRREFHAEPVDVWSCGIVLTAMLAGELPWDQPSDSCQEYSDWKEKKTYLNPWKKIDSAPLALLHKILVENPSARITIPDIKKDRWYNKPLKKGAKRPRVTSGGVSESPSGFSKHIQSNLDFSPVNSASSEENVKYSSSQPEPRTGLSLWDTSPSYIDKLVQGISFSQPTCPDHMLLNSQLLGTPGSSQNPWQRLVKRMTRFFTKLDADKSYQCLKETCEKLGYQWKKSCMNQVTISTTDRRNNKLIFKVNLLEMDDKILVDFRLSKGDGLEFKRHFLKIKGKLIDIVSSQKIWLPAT

Row | SMILES | GI50 (HCT-116) | IC50 [1] | IC50 [2] | inhibition [3] | IC50 [4] | inhibition [5]
1 | N=C1NC(=O)/C(=C/c2ccc(-c3ccccc3[N+](=O)[O-])o2)S1 | > 80 µM | 19 µM | – | – | – | –
2 | N=C1NC(=O)/C(=C/c2ccc(-c3ccc(S(N)(=O)=O)cc3)o2)S1 | > 80 µM | – | 77 µM | 54% | 0.25 µM | 44%
3 | N=C1NC(=O)/C(=C/c2ccc(-c3ccc(S(=O)(=O)N4CCOCC4)cc3)o2)S1 | – | 150 µM | – | – | – | –
4 | N=C1NC(=O)/C(=C/c2ccc(-c3ccc(S(N)(=O)=O)c(Cl)c3)o2)S1 | > 80 µM | 0.57 µM | – | – | 0.014 µM | –
5 | N=C1NC(=O)/C(=C/c2ccc(-c3ccc(C(=O)O)cc3)o2)S1 | > 80 µM | – | – | – | – | –
6 | C/C(=C1/SC(=N)NC1=O)c1ccc(-c2ccc(S(N)(=O)=O)cc2)o1 | > 80 µM | – | – | – | 0.43 µM | –
7 | N=C1NC(=O)/C(=C/c2ccc(-c3ccc(S(=O)(=O)N4CCNCC4)cc3)o2)S1 | > 80 µM | 2.9 µM | – | – | – | –

Results, then the molecule that gave them:

Row | GI50 (HCT-116) | IC50 [1] | IC50 [2] | inhibition [3] | IC50 [4] | inhibition [5] | SMILES
8 | > 80 µM | – | – | – | – | – | NS(=O)(=O)c1ccc(-c2ccc(/C=C3\SC(=O)NC3=O)o2)cc1
9 | > 80 µM | 0.57 µM | – | – | 0.51 µM | – | CN(C)CCNS(=O)(=O)c1ccc(-c2ccc(/C=C3\SC(=N)NC3=O)o2)cc1
10 | > 80 µM | – | – | – | 0.002 µM | – | N=C1NC(=O)/C(=C/c2ccc(-c3ccc(S(N)(=O)=O)c(C(F)(F)F)c3)o2)S1
11 | > 80 µM | 9.3 µM | – | – | – | – | N=C1NC(=O)/C(=C/c2ccc(-c3ccc(C(N)=O)cc3)o2)S1
12 | > 80 µM | – | – | – | 0.08 µM | – | CNS(=O)(=O)c1ccc(-c2ccc(/C=C3\SC(=N)NC3=O)o2)cc1
